{
  "source": "patent US5874235A",
  "about": "“Screening assays for cancer chemopreventative agents” (The Johns Hopkins University, priority 1997, dated 1999)",
  "type_in_all_cases": "cell-based, human",
  "key": {"[1]": {"system": "SW480 cells", "conditions": "for effect on apoptosis: 200 μM fatty acid, 48 hours; for inhibition of SUS-induced apoptosis: co-treatment with SUS 200 μM (CHX 10 μM; PGE2 10 μM)"}, "[2]": {"system": "SW480 cells", "test": "Ceramide levels, E. coli diacylglycerol (DAG) kinase assay", "conditions": "for effect on ceramide levels: 48 hours", "protocol": "(§1) Cells were harvested and ceramide was quantified. The first lane of each panel corresponds to a ceramide standard (ceramide type III, Sigma). […] HCT116 and SW480 cells were treated with SUS or INDO as indicated. Ceramide levels were determined as described above. […] Control cells were treated with DMSO vehicle only. Cells were harvested at the indicated times following treatment and ceramide levels were determined as described above. The data are plotted as the mean of at least two experiments with the error bars corresponding to the standard deviation.\n(§2) Ceramide levels were measured using the Escherichia coli diacylglycerol (DAG) kinase assay as previously described (30) with the following modifications. After the initial lipid extraction, phases were broken by adding 2 ml chloroform and 2 ml 1M NaCl and lipids were washed with 1M NaCl prior to drying under nitrogen (32, 33). After solubilization, samples were sonicated for 15 seconds. The DAG reaction was performed for 30 minutes at 25° C. in a 100 μl reaction volume with 3.5 μg DAG kinase (Calbiochem) and […] γ^32 P-ATP (Dupont NEN, 6000 Ci/mmol). After extraction of the labeled lipids, the lower chloroform phase was washed with 1% HCl prior to drying under nitrogen. The solvent mixture for thin layer chromatography was chloroform:acetone:methanol:acetic acid:water (10:4:3:2:1). Samples were quantitated using a Phosphorimager (Molecular Dynamics)."}, "[3]": {"system": "HCT116 cells", "conditions": "for inhibition of SUS-induced apoptosis: co-treatment with SUS 125 μM (CHX 10 μM; PGE2 10 μM)", "protocol": "FIGS. 1A, 1B and 1C NSAID induce apoptosis in human colorectal cancer cells. In FIG. […] Cells were collected at the indicated times, fixed and stained with Hoechst 33258 (23). The cells were counted and those with fragmented nuclei were scored as apoptotic. In FIG. 1B, HCT116 and SW480 cells were treated with SUS or INDO for 60 hours, harvested and stained as described above. Cells treated with SUS or INDO show the hallmarks of apoptosis.\n(§3) This death appeared to be apoptotic, as it was accompanied by nuclear condensation and fragmentation (FIG. 1B) and exposure of phosphatidylserine groups on the cell surface, two hallmarks of apoptosis (11, 12)."}, "[4]": {"system": "SW480 cells", "test": "cells", "conditions": "for increase in arachidonic acid: sw480 cells", "protocol": "(§4) FIGS. 4A, 4B, 4C, 4D, 4E and 4F. The role of arachidonic acid in NSAID-mediated apoptosis. […] HCT116 and SW480 cells were treated with the indicated concentrations of SUS or INDO. Arachidonic acid (AA) levels were determined by measuring release of ^3 H-AA into the media as previously described (18). Data are indicated as the mean of three replicates with the error bars corresponding to the standard deviation. In addition, the nature of the released radiolabeled material was evaluated by thin layer chromatography as previously described (28). […] HCT116 and SW480 cells were incubated with ^3 H-choline chloride (0.5 mCi ml^-1, 80 Ci mmol^-1, New England Nuclear) for 48 hours. After labeling, cells were washed with HBSS (Gibco) and treated with SUS or INDO for the indicated times. Sphingomyelin measurements were performed using the bacterial sphingomyelinase method as previously described (18). Sphingomyelin levels at each time point are plotted as a percentage of that in untreated control cells. For each point, the mean of at least two independent experiments is presented with the error bars corresponding to the standard deviations. […] SW480 cells were treated with 200 μM arachidonic acid (AA), SUS (SUS) or behenic acid as a control fatty acid (FA) as indicated. […] SW480 cells were treated with suboptimal doses (100 μM) of arachidonic acid (AA), SUS (SUS), or both (AA+SUS) as indicated. After 48 hours of treatment, apoptosis and ceramide increases were assessed as described for FIGS. 1 and 3, respectively. Ceramide increases (left axis) were expressed as fold increases relative to untreated cells. Apoptosis (right axis) was expressed as percent apoptotic cells minus percent apoptotic cells in untreated cells (5.6%+/-2.4). Data are indicated as the mean of duplicates with the error bars corresponding to the standard deviation.\n(§5) Arachidonic acid is known to stimulate neutral sphingomyelinase (18), which catalyzes the conversion of sphingomyelin to ceramide. We therefore considered the possibility that inhibition of COX activity might lead to increases in arachidonic acid, the substrate for COX. To test this hypothesis, we first determined whether SUS stimulated arachidonic acid accumulation. In both SW480 and HCT 116 cells, apoptosis-inducing doses of SUS increased arachidonic acid by 2 to 3 fold at 24 hours and by approximately 5 fold at 48 hours (FIGS. 4A and 4B). The arachidonic acid increase following SUS treatment was as great as that following treatment with mellitin, a known activator of phospholipase A2. Arachidonic acid levels in HCT116 cells increased 3.5 fold one hour after treatment with 1 μM mellitin. Likewise, arachidonic acid levels increased 2.9 fold in SW480 cells one hour after mellitin treatment. Arachidonic acid (AA) levels were determined by measuring release of ^3 H-AA into the media as previously described (18). The nature of released radiolabeled material was evaluated by thin layer chromatography analysis as previously described (28)."}, "[5]": {"system": "HCT116 cells", "test": "Arachidonic acid levels, release of 3H-AA into the media", "protocol": "as §4, §5"}, "[6]": {"system": "SW480 cells", "conditions": "indomethacin treatment", "protocol": "FIGS. 1A, 1B and 1C NSAID induce apoptosis in human colorectal cancer cells. In FIG. 1A, HCT116 and SW480 cells were treated with indomethacin (INDO) (300 μM) or SUS (125 μM for HCT116 and 200 μM for SW480 cells). Cells were collected at the indicated times, fixed and stained with Hoechst 33258 (23). The cells were counted and those with fragmented nuclei were scored as apoptotic. In FIG. 1B, HCT116 and SW480 cells were treated with SUS or INDO for 60 hours, harvested and stained as described above. Cells treated with SUS or INDO show the hallmarks of apoptosis.\nas §3"}, "[7]": {"system": "HCT116 cells", "test": "Ceramide levels, E. coli diacylglycerol (DAG) kinase assay", "conditions": "indomethacin treatment", "protocol": "as §1, §2"}, "[8]": {"system": "SW480 cells", "test": "Sphingomyelin levels, bacterial sphingomyelinase method", "conditions": "indomethacin treatment", "protocol": "as §4\n(§6) To test whether the increased ceramide was associated with evidence of augmented sphingomyelinase activity, we measured total sphingomyelin levels after SUS treatment. […] We also measured neutral sphingomyelinase activity in lysates from the treated cells and no differences were found. Neutral sphingomyelinase activity was assayed as described (18). After cell lysis, protein concentrations were determined using the Bradford method (Bio-Rad) and […] cellular protein was used in each assay. Neutral sphingomyelinase activity was determined by measuring the rate of hydrolysis of ^14 C-labelled sphingomyelin (Amersham). SW480 and HCT116 cell lines were treated with SUS (50, 200, and 600 μM) for 6 to 24 hours."}, "[9]": {"system": "HCT116 cells", "test": "Sphingomyelin levels, bacterial sphingomyelinase method", "conditions": "indomethacin treatment", "protocol": "as §4, §6"}},
  "note": "Numbered stars: 1 amine (or outer) side, 2 acyl side, 3 side chain; on linkers, the order of the positions; unused ones are H or OH. Bridge positions count the residues as written; N and C are the ends. Square brackets hold non-standard residues; d marks the D form. Peptide text beside a SMILES is read from it. I, II: the chains in the order shown. Actinocin(9to1) = Cc1c2oc3c(C)ccc(C(=O)[*:1])c3nc-2c(C(=O)[*:2])c(N)c1=O; NMeV = CN[C@H](C(=O)O)C(C)C; Sar = CNCC(=O)O",
  "data": [
    {"molecule": "CCCCCCCCCCCCCCCCCCCCCC(=O)O", "note": "[behenic acid]", "values": [
      {"measurement": "effect on apoptosis", "setting": "[1]", "result": "virtually no effect on ceramide levels and apoptosis"},
      {"measurement": "effect on ceramide levels", "setting": "[2]; 200 μM fatty acid", "result": "virtually no effect on ceramide levels and apoptosis"}
    ]},
    {"molecule": "CCCCC[C@H](O)/C=C/[C@H]1[C@H](O)CC(=O)[C@@H]1C/C=C\\CCCC(=O)O", "note": "[prostaglandin E2]", "values": [
      {"measurement": "inhibition of SUS-induced apoptosis", "setting": "[1]", "result": "No inhibition of apoptosis was observed"},
      {"measurement": "inhibition of SUS-induced apoptosis", "setting": "[3]", "result": "No inhibition of apoptosis was observed"}
    ]},
    {"molecule": "ceramide", "values": [
      {"measurement": "increase in arachidonic acid", "setting": "[4]; 16 h, 100 µM", "result": 1.9, "unit": "fold"},
      {"measurement": "increase in arachidonic acid", "setting": "[5]; hct116 cells, 16 h, 100 µM", "result": 1.5, "unit": "fold"},
      {"measurement": "induction of apoptosis", "setting": "[1]; human, sw480 cells, 16 h, 100 µM", "result": "> 90", "unit": "%"},
      {"measurement": "induction of apoptosis", "setting": "[3]; human, hct116 cells, 16 h, 100 µM", "result": "> 90", "unit": "%"}
    ]},
    {"molecule": "COc1ccc2c(c1)c(CC(=O)O)c(C)n2C(=O)c1ccc(Cl)cc1", "note": "[indomethacin]", "values": [
      {"measurement": "induction of apoptosis compared with SUS", "setting": "[6]", "result": "to similar degrees as SUS"},
      {"measurement": "cells induced to undergo apoptosis", "setting": "[6]; cycloheximide sensitive", "result": 94, "unit": "%"},
      {"measurement": "increase of arachidonic acid concentration compared with SUS", "setting": "[4]; indomethacin treatment", "result": "to similar degrees as SUS"},
      {"measurement": "increase in arachidonic acid", "setting": "[4]", "result": "3-4 fold"},
      {"measurement": "increase of arachidonic acid concentration compared with SUS", "setting": "[5]; indomethacin treatment", "result": "to similar degrees as SUS"},
      {"measurement": "increase in ceramide levels", "setting": "[2]; indomethacin treatment", "result": 6, "unit": "fold"},
      {"measurement": "increase of ceramide concentration compared with SUS", "setting": "[2]; indomethacin treatment", "result": "to similar degrees as SUS"},
      {"measurement": "increase of ceramide concentration compared with SUS", "setting": "[7]", "result": "to similar degrees as SUS"},
      {"measurement": "induction of apoptosis compared with SUS", "setting": "[3]; indomethacin treatment", "result": "to similar degrees as SUS"},
      {"measurement": "activation of sphingomyelin hydrolysis compared with SUS", "setting": "[8]", "result": "to similar degrees as SUS"},
      {"measurement": "activation of sphingomyelin hydrolysis compared with SUS", "setting": "[9]", "result": "to similar degrees as SUS"}
    ]},
    {"molecule": "C[C@@H]1C[C@@H]([C@H](O)CC2CC(=O)NC(=O)C2)C(=O)[C@@H](C)C1", "note": "[cycloheximide]", "values": [
      {"measurement": "inhibition of SUS-induced apoptosis", "setting": "[1]", "result": "completely inhibit apoptosis"},
      {"measurement": "inhibition of SW480 cell death", "setting": "[1]; higher concentrations of SUS", "result": "could not inhibit"},
      {"measurement": "inhibition of SUS-induced apoptosis", "setting": "[3]", "result": "completely inhibit apoptosis"}
    ]},
    {"molecule": "CCCCC/C=C\\C/C=C\\C/C=C\\C/C=C\\CCCC(=O)O", "note": "[arachidonic acid]", "values": [
      {"measurement": "effect on apoptosis", "setting": "[1]", "result": "a potent inducer of ceramide and apoptosis"},
      {"measurement": "effect on ceramide levels", "setting": "[2]; 200 μM fatty acid", "result": "a potent inducer of ceramide and apoptosis"},
      {"measurement": "effect on ceramide levels", "setting": "[2]; suboptimal doses, 100 μM each, separately or together", "result": "little effect on ceramide levels"}
    ]},
    {"molecule": "mellitin", "values": [
      {"measurement": "increase in arachidonic acid levels", "setting": "[4]; one hour after mellitin treatment, 60 min", "result": 2.9, "unit": "fold"},
      {"measurement": "increase in arachidonic acid levels", "setting": "[5]; one hour after 1 μM mellitin", "result": 3.5, "unit": "fold"}
    ]},
    {"molecule": "Cc1c2oc3c(C)ccc(C(=O)N[C@@H]4C(=O)N[C@H](C(C)C)C(=O)N5CCC[C@H]5C(=O)N(C)CC(=O)N(C)[C@@H](C(C)C)C(=O)O[C@@H]4C)c3nc-2c(C(=O)N[C@@H]2C(=O)N[C@H](C(C)C)C(=O)N3CCC[C@H]3C(=O)N(C)CC(=O)N(C)[C@@H](C(C)C)C(=O)O[C@@H]2C)c(N)c1=O", "note": "[actinomycin D] (I: T[dV]P[Sar][NMeV] / II: T[dV]P[Sar][NMeV]; ester I:1-I:C, II:1-II:C; linker I:N-II:N via Actinocin(9to1))", "values": [
      {"measurement": "inhibition of SUS-induced apoptosis", "setting": "[1]", "result": "completely inhibit apoptosis"},
      {"measurement": "inhibition of SUS-induced apoptosis", "setting": "[3]", "result": "completely inhibit apoptosis"}
    ]}
  ]
}
